From patent publication US20230365526A1, “PYRIDAZINE DERIVATIVES FOR MODULATING NUCLEIC ACID SPLICING” (REMIX THERAPEUTICS INC., priority 2020, published 2023) come the findings set out here.

Structures can show the parent of a compound that is named as a salt. Where two headings read alike, the source gives them in different places. Bounds are passed on as bounds.

Holding throughout (type): cell-based
In one assay the test system is HTT mRNA. Nature of the assay: RT-qPCR splicing assay monitoring HTT canonical (CJ) and alternative (AJ) junction mRNA in A673 or K562 cells. The conditions noted are these: 24 hours compound treatment, top dose 10 uM. Here is the method: (§1) Compounds described herein were used to modulate RNA transcript abundance in cells. The expression of a target mRNA was measured by detecting the formation of an exon-exon junction in the canonical transcript (CJ). A compound mediated exon-inclusion event was detected by observing an increase in formation of a new junction with an alternative exon (AJ). Real-time qPCR assays were used to detect these splicing switches and interrogate the potency of various compounds towards different target genes. A high-throughput real time quantitative PCR (RT-qPCR) assay was developed to measure these two isoforms of the mRNA (CJ and AJ) for an exemplary gene, HTT, together with a control housekeeping gene, GAPDH or GUSB or PPIA, used for normalization. Briefly, the A673 or K562 cell line was treated with various compounds described herein (e.g., compounds of Formula (I)). After treatment, the levels of the HTT mRNA targets were determined from each sample of cell lysate by cDNA synthesis followed by qPCR.
• Cells-to-CT 1-step kit: ThermoFisher A25602, Cells-to-CT lysis reagent: ThermoFisher 4391851C, TaqMan™ Fast Virus 1-Step Master Mix: ThermoFisher 4444436 • GAPDH: VIC-PL, ThermoFisher 4326317E (Assay: Hs99999905_m1)—used for K562/suspension cell lines • GUSB: VIC-PL, ThermoFisher 4326320E (Assay: Hs99999908_m1)—used for K562/suspension cell lines • PPIA: VIC-PL, ThermoFisher 4326316E (Assay: Hs99999904_m1)—used for A673/adherent cell lines
(§2) The A673 cell line was cultured in DMEM with 10% FBS. Cells were diluted with full growth media and plated in a 96-well plate (15,000 cells in 100 ul media per well). The plate was incubated at 37° C. with 5% CO2 for 24 hours to allow cells to adhere. An 11-point 3-fold serial dilution of the compounds was made in DMSO then diluted in media in an intermediate plate. Compounds were transferred from the intermediate plate to the cell plate with the top dose at a final concentration of 10 uM in the well. Final DMSO concentration was kept at or below 0.25%. The cell plate was returned to the incubator at 37° C. with 5% CO2 for an additional 24 hours.
(§3) The K562 cell line was cultured in IMDM with 10% FBS. For K562, cells were diluted with full growth media and plated in either a 96-well plate (50,000 cells in 50 uL media per well) or a 384-well plate (8,000-40,000 cells in 45 uL media per well). An 11-point 3-fold serial dilution of the compounds were made in DMSO then diluted in media in an intermediate plate. Compound was transferred from the intermediate plate to the cell plate with the top dose at a final concentration of 10 uM in the well. Final DMSO concentration was kept at or below 0.25%. Final volume was 100 uL for 96-well plate and 50 uL for 384-well plate. The cell plate was then placed in an incubator at 37° C. with 5% CO2 for 24 hours.
(§4) The cells were then gently washed with 50 uL-100 uL cold PBS before proceeding to addition of lysis buffer. 30 uL-50 uL of room temperature lysis buffer with DNAse I (and optionally RNAsin) was added to each well. Cells were shaken/mixed thoroughly at room temperature for 5-10 minutes for lysis to take place and then 3 uL-5 uL of room temperature stop solution was added and wells were shaken/mixed again. After 2-5 minutes, the cell lysate plate was transferred to ice for RT-qPCR reaction setup. The lysates could also be frozen at −80° C. for later use.
In some cases, a direct lysis buffer was used. An appropriate volume of 3×lysis buffer (10 mM Tris, 150 mM NaCl, 1.5%-2.5% Igepal and 0.1-1 U/uL RNAsin, pH 7.4) was directly added to either K562 or A673 cells in media and mixed by pipetting 3 times. The plates were then incubated at room temperature with shaking/rocking for 20-50 minutes to allow for lysis to take place. After this time, the cell lysate plate was transferred to ice to set up for the RT-qPCR reactions. The lysates could also be frozen at −80° C. for later use. […]
(In qPCR the cycle at which signal appears reflects the starting amount.)

For a further assay, the system named is Target C. Nature of the assay: Gene panel canonical junction RT-qPCR assay: Target C. The conditions noted are these: read-out: Target C (IC50, decrease in CJ mRNA levels). Here is the method:
as §1, §2, §3, §4
(§5) In some cases, a direct lysis buffer was used. An appropriate volume of 3×lysis buffer (10 mM Tris, 150 mM NaCl, 1.5%-2.5% Igepal and 0.1-1 U/uL RNAsin, pH 7.4) was directly added to either K562 or A673 cells in media and mixed by pipetting 3 times. The plates were then incubated at room temperature with shaking/rocking for 20-50 minutes to allow for lysis to take place. After this time, the cell lysate plate was transferred to ice to set up for the RT-qPCR reactions. The lysates could also be frozen at −80° C. for later use.
(§6) To set up 10 uL RT-qPCR reactions, cell lysates were transferred to 384-well qPCR plates containing the master mix according to the table below. The plates were sealed, gently vortexed, and spun down before the run. The volumes were adjusted accordingly in some instances where the reaction was carried in 20 uL. The table below summarizes the components of the RT-qPCR reactions:
(§7) The RT-qPCR reaction was performed using a QuantStudio (ThermoFisher) under the following fast cycling conditions. […]

Another assay deals with HTT. Nature of the assay: Gene panel canonical junction RT-qPCR assay: HTT. The conditions noted are these: read-out: HTT (IC50, decrease in CJ mRNA levels). Here is the method:
as §1, §2, §3, §4, §5, §6, §7

[1] abbreviates: decrease in CJ mRNA, read-out: HTT CJ AC50.
The mark [2] stands for this setting: increase in AJ mRNA, read-out: HTT AJ AC50.

The term AC50 denotes the concentration giving half of the maximal activity seen. For the compound `C[C@@H]1C[C@H](N(C)c2ccc(-c3ccc(-c4cn[nH]c4)c(=O)[nH]3)nn2)CCN1` [Compound 126, 6-(6-[methyl[(2R,4R)-2-methylpiperidin-4-yl]amino]pyridazin-3-yl)-3-(1H-pyrazol-4-yl)-1H-pyridin-2-one], the AC50 in the assay with HTT mRNA (setting [1]) and in the assay on HTT mRNA (setting [2]) was greater than 10 µM each time.

Take `CN(c1ccc(-c2ccc(-c3cn[nH]c3)c(=O)[nH]2)nn1)[C@@H]1C[C@H]2CC[C@@H](C1)N2` [Compound 129, 6-[6-[(1R,3S,5S)-8-azabicyclo[3.2.1]octan-3-yl(methyl)amino]pyridazin-3-yl]-3-(1H-pyrazol-4-yl)-1H-pyridin-2-one]: the AC50 with HTT mRNA (setting [1]) and with HTT mRNA (setting [2]) was 1 to 10 µM in each case.

For orientation: IC50 means the concentration at which inhibition is half-maximal. With `COc1nc(-c2ccc(N(C)[C@H]3CCN[C@@H](C)C3)nn2)ccc1-n1cccn1` [Compound 135, 6-[6-methoxy-5-(pyrazol-1-yl)pyridin-2-yl]-N-methyl-N-[(2S,4S)-2-methylpiperidin-4-yl]pyridazin-3-amine], the values for the IC50 in the assay with Target C and in the assay on HTT were less than 0.1 µM and greater than 10 µM, respectively. In addition, the AC50 in the assay with HTT mRNA (setting [1]) and with HTT mRNA (setting [2]) was greater than 10 µM throughout.

Consider `CN(c1ccc(-c2ccc(-c3cn[nH]c3)c(C(F)(F)F)n2)nn1)[C@@H]1C[C@H]2CC[C@@H](C1)N2` [Compound 236], for which the IC50 with Target C and in the assay with HTT was greater than 10 µM throughout. The concentration at half-maximal activity (AC50) in the assay on HTT mRNA (setting [1]) and in the assay on HTT mRNA (setting [2]) was greater than 10 µM in each case.

Consider `COc1nc(-c2ccc(OC3CC(C)(C)NC(C)(C)C3)nn2)ccc1-c1cn[nH]c1` [Compound 244, 3-[6-methoxy-5-(1H-pyrazol-4-yl)pyridin-2-yl]-6-[(2,2,6,6-tetramethylpiperidin-4-yl)oxy] pyridazine], for which the half-maximal inhibitory concentration (IC50) is 0.1 to 1 µM with Target C and less than 0.1 µM with HTT. The AC50 in the assay on HTT mRNA (setting [1]) and in the assay with HTT mRNA (setting [2]) was 0.1 to 1 µM each time.

Turning to `COc1nc(-c2ccc(OC3CC(C)(C)NC(C)(C)C3)nn2)ccc1-c1cnn(C)c1` [Compound 245, 3-[6-methoxy-5-(1-methylpyrazol-4-yl)pyridin-2-yl]-6-[(2,2,6,6-tetramethylpiperidin-4-yl)oxy]pyridazine], the values for the IC50 in the assay on Target C and in the assay with HTT were 0.1 to 1 µM and less than 0.1 µM, respectively. Also, the concentration at half-maximal activity (AC50) with HTT mRNA (setting [1]) and in the assay with HTT mRNA (setting [2]) was 0.1 to 1 µM each time.

Take `COc1nc(-c2ccc(N(C)C3CC(C)(C)NC(C)(C)C3)nn2)ccc1-c1cn[nH]c1` [Compound 246, 6-[6-methoxy-5-(1H-pyrazol-4-yl)pyridin-2-yl]-N-methyl-N-(2,2,6,6-tetramethylpiperidin-4-yl)pyridazin-3-amine]: the IC50 in the assay with Target C is 0.1 to 1 µM; in the assay on HTT, less than 0.1 µM. Also, the results for the AC50 with HTT mRNA (setting [1]) and with HTT mRNA (setting [2]) were less than 0.1 µM and 0.1 to 1 µM, respectively.

Turning to `COc1nc(-c2ccc(N(C)C3CC(C)(C)NC(C)(C)C3)nn2)ccc1-c1cnn(C)c1` [Compound 247, 6-[6-methoxy-5-(1-methylpyrazol-4-yl)pyridin-2-yl]-N-methyl-N-(2,2,6,6-tetramethylpiperidin-4-yl)pyridazin-3-amine], the half-inhibitory concentration (IC50) in the assay on Target C is 0.1 to 1 µM; in the assay on HTT, less than 0.1 µM. The half-maximal activity concentration (AC50) in the assay with HTT mRNA (setting [1]) and in the assay with HTT mRNA (setting [2]) was 0.1 to 1 µM throughout.

As for `COc1cc(-c2ccc(N(C)[C@@H]3C[C@H]4CC[C@@H](C3)N4)nn2)ncc1-c1cn[nH]c1` [Compound 248], the concentration for half-maximal inhibition (IC50) with Target C and in the assay on HTT was greater than 10 µM in each case. Further, the AC50 in the assay with HTT mRNA (setting [1]) and in the assay with HTT mRNA (setting [2]) was greater than 10 µM each time.

With `CN(c1ccc(-c2ccc(-c3cn[nH]c3)c(F)n2)nn1)[C@@H]1C[C@H]2CC[C@@H](C1)N2` [Compound 249, (1R,3R,5S)—N-{6-[6-fluoro-5-(1H-pyrazol-4-yl)pyridin-2-yl]pyridazin-3-yl}-N-methyl-8-azabicyclo[3.2.1]octan-3-amine hydrochloride], the half-maximal inhibitory concentration (IC50) in the assay with Target C and in the assay with HTT was less than 0.1 µM each time. Besides, the concentration at half-maximal activity (AC50) in the assay with HTT mRNA (setting [1]) and with HTT mRNA (setting [2]) was less than 0.1 µM in each case.

Turning to `CN(c1ccc(-c2ccc(-c3cn[nH]c3)c(Cl)n2)nn1)[C@@H]1C[C@H]2CC[C@@H](C1)N2` [Compound 250, (exo)-N-{6-[6-chloro-5-(1H-pyrazol-4-yl)pyridin-2-yl]pyridazin-3-yl}-N-methyl-8-azabicyclo[3.2.1]octan-3-amine], the IC50 was 0.1 to 1 µM in the assay on Target C and less than 0.1 µM in the assay on HTT. In addition, the AC50 in the assay with HTT mRNA (setting [1]) and in the assay on HTT mRNA (setting [2]) was less than 0.1 µM throughout.

As to `COc1nc(-c2ccc(NC3CCNCC3)nn2)ccc1-c1cnn(C)c1` [Compound 257, 6-[6-methoxy-5-(1-methylpyrazol-4-yl)pyridin-2-yl]-N-(piperidin-4-yl)pyridazin-3-amine], the IC50 with Target C and in the assay on HTT was 1 to 10 µM each time. Besides, the concentration at half-maximal activity (AC50) in the assay with HTT mRNA (setting [1]) and in the assay with HTT mRNA (setting [2]) was 1 to 10 µM in each case.

`COc1nc(-c2ccc(OC3CC(C)(C)NC(C)(C)C3)nn2)ccc1-c1cnn(C)n1` [Compound 258, 3-[6-methoxy-5-(2-methyl-1,2,3-triazol-4-yl)pyridin-2-yl]-6-[(2,2,6,6-tetramethylpiperidin-4-yl)oxy]pyridazine]: the half-inhibitory concentration (IC50) lay in the range of 1 to 10 µM in the assay on Target C and 0.1 to 1 µM in the assay on HTT. Besides, the half-maximal activity concentration (AC50) lay in the range of 0.1 to 1 µM with HTT mRNA (setting [1]) and 1 to 10 µM in the assay on HTT mRNA (setting [2]).

Consider `COc1nc(-c2ccc(N(C)C3CC(C)(C)NC(C)(C)C3)nn2)ccc1-c1cnn(C)n1` [Compound 259], for which the IC50 in the assay on Target C and in the assay with HTT was 0.1 to 1 µM in each case. The half-maximal activity concentration (AC50) in the assay with HTT mRNA (setting [1]) was in the range of 0.1 to 1 µM; in the assay on HTT mRNA (setting [2]), 1 to 10 µM.

Regarding `COc1nc(-c2ccc(N(C)[C@@H]3C[C@H]4CC[C@@H](C3)N4)nn2)cnc1-c1cn[nH]c1` [Compound 260, (1R,3R,5S)—N-{6-[6-methoxy-5-(1H-pyrazol-4-yl)pyrazin-2-yl]pyridazin-3-yl}-N-methyl-8-azabicyclo [3.2.1] octan-3-amine hydrochloride], the IC50 in the assay with Target C and in the assay on HTT was less than 0.1 µM in each case. The AC50 in the assay on HTT mRNA (setting [1]) and with HTT mRNA (setting [2]) was 0.1 to 1 µM throughout.

With `CCOc1nc(-c2ccc(N(C)[C@@H]3C[C@H]4CC[C@@H](C3)N4)nn2)ccc1-c1cn[nH]c1` [Compound 261, (1R,3R,5S)—N-{6-[6-ethoxy-5-(1H-pyrazol-4-yl)pyridin-2-yl]pyridazin-3-yl}-N-methyl-8-azabicyclo[3.2.1]octan-3-amine], the IC50 with Target C and with HTT was less than 0.1 µM in each case. The AC50 in the assay on HTT mRNA (setting [1]) and in the assay with HTT mRNA (setting [2]) was less than 0.1 µM in each case.
